One data set concerns the target PARP1 (Homo sapiens, UniProt P09874). Briefly: PARP1 inhibition activity. In kind it is biochemical.
Data set [1] has as its system H9C2 (rat cardiomyocytes). Briefly: Cytotoxicity assay (MTT, 48 h) on H9C2. It counts as cell-based. As to conditions: read-out: H9C2, IC50.
Data set [2] concerns MES-SA (Human uterine sarcoma). Briefly: Cytotoxicity assay (MTT, 48 h) on MES-SA. In kind it is cell-based. As for the experimental part: Cells were cultured in modified McCoy’s 5a medium supplemented with 10% fetal bovine serum. […] After reaching approx. 90% confluence, cells were detached using 0.05% trypsin/EDTA solution and counted. Then, cells were plated at optimal density for the logarithmic phase of growth. MES-SA cells were seeded onto 96-well plate at a concentration of 3000 cells per well. Blank control wells were left cell-free for background absorption measurement. […] Control cells were incubated with media without compounds. MTT assays were performed after 48 h incubation. Briefly, culture medium was removed from each well and replaced with fresh medium with MTT (0.2 mg/mL). […] The plate was further shaken for 15 min at room temperature, and the optical density at 540 nm of the wells was measured using multichannel spectrophotometer (Thermo Scientific Multiskan EX, Waltham, MA, USA). The percent of alive cells were calculated according to the formula 100∙T/C, where T is the optical density of a test well after 48 h exposure to compound, and C is control cells optical density after 48 h. All compounds were tested in three independent experiments. The IC50 values were calculated using Graph Pad Prism (GraphPad, Inc., La Jolla, CA, USA).

Data set [3] has as its system MCF-7 (human adenocarcinoma). Briefly: Cytotoxicity assay (MTT, 48 h) on MCF-7. It counts as cell-based.
Data set [4] deals with HCC1937 (human breast carcinoma). Briefly: Cytotoxicity assay (MTT, 48 h) on HCC1937. In kind it is cell-based.
Data set [5] relates to MES-SA/Dx-5 (doxorubicin resistant human uterine sarcoma). More on the design: method as in doi:10.1039/D2NJ00340F. As to conditions: MTT, cited from earlier work.
Data set [6] has as its system MES-SA/Dx-5 cells. On the set-up: method as in doi:10.1039/D2NJ00340F. As to conditions: IC50 of DOX/IC50 of DOX with compound at IC20, MES-SA/Dx-5; cited from earlier work.
In data set [7] the test system is MES-SA/Dx-5 cells. Briefly: Reversal of doxorubicin resistance (doxorubicin cytotoxicity in presence of compound at IC20). The following applies: IC50 of DOX/IC50 of DOX with a conjugate at IC20, MES-SA/Dx-5. In kind it is cell-based, human. As to the method: To calculate reversal fold (RF) values, doxorubicin cytotoxicity was determined in the presence of the tested compounds at their corresponding IC20 concentration as described above. RF values were calculated as IC50 of DOX/IC50 of DOX in the presence of a tested compound.
Next, the cytotoxicity of 5a–c was evaluated on a doxorubicin resistant human uterus sarcoma cell line (MES-SA/Dx-5) using the MTT assay (Table 2). […] To explore the potential of the novel compounds to reverse doxorubicin resistance, cytotoxicity of doxorubicin was evaluated in the presence of 5a–c at their corresponding IC20 concentrations.

The subject of data set [8] is MES-SA/Dx-5 (doxorubicin resistant human uterine sarcoma). Briefly: cells. The following applies: for IC20: MES-SA/Dx5, read-out: MES-SA/Dx5 IC20.
The test system is the same in data set [9]. The following applies: MES-SA/Dx-5 vs MES-SA.
Setting [10] is: PARP1 inhibiting activity, Table 1, read-out: PARP1.
The mark [11] stands for this setting: Homo sapiens, MES-SA, read-out: MES-SA, IC50, MTT, 48 h.
Where [12] appears, read: Homo sapiens, MCF7, 48 h, read-out: MCF-7, IC50, MTT, 48 h.
[13] abbreviates: Homo sapiens, HCC1937, 48 h, read-out: HCC1937, IC50, MTT, 48 h, BRCA1-deficient breast carcinoma.
Where [14] appears, read: MES-SA/Dx5, read-out: MES-SA/Dx5 IC50.

Like-named read-outs stand apart in the source and are kept apart here.

This is an account of results in PMC9783898 (Pharmaceutics, 2022).

PARP1, sequence (P09874 whole entry, species assumed): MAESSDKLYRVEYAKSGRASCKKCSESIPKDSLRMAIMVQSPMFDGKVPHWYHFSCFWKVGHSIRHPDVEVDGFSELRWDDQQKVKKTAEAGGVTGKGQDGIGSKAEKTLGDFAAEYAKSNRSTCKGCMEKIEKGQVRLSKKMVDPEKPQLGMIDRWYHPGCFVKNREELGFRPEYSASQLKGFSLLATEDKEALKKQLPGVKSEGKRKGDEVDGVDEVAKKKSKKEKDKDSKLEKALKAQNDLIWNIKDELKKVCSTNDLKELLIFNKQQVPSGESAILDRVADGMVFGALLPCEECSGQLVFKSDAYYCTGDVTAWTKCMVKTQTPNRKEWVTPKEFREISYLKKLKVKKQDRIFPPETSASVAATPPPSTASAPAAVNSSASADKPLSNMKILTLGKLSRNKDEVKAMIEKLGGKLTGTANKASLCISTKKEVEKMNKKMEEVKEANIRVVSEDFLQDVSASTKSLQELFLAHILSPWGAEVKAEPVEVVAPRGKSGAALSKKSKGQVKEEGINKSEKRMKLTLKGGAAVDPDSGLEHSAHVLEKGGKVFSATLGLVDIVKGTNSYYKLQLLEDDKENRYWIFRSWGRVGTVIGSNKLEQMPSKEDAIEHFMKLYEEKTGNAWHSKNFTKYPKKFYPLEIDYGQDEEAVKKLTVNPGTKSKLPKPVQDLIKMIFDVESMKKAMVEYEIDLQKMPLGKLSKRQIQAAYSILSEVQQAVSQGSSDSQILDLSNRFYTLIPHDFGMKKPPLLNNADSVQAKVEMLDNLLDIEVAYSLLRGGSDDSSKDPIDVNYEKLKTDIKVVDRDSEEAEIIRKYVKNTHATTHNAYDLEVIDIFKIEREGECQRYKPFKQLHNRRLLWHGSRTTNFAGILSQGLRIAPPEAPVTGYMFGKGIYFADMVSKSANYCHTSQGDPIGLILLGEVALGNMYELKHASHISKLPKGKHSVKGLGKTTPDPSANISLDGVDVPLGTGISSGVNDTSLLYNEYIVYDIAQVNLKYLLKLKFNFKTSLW

As for `Cn1c(=O)c2c(Br)c(CN3CCCNCC3)[se]c2c2ccccc21` [Compound 1], the IC50 at PARP1 (setting [10]) is > 1 µM; in data set [1] (H9c2, 48 h), > 300 µM; in data set [2] (setting [11]) it was 17 to 21 µM; in [2] (read-out: MES-SA, IC50, MTT), 21 ± 3.9 µM; in [3] (setting [12]), 17 to 21 µM; in data set [3] (read-out: MCF-7, IC50, MTT, 48 h) it was 17.1 ± 1.9 µM. Besides, the IC50 is 17 to 21 µM in data set [4] (setting [13]); 19.9 ± 4.8 µM in data set [4] (read-out: HCC1937, IC50, MTT, 48 h, BRCA1-deficient breast carcinoma); 21.1 ± 2.49 µM in [5] (read-out: MES-SA/Dx5 IC50). Also, on PARP1 (at 1 µM concentration), the PARP1 activity result is “did not decrease PARP1 activity”. Besides, the IC20 in [5] (read-out: MES-SA/Dx5 IC20) is 7.96 ± 3.03 µM. In addition, in the data set on MES-SA/Dx-5 cells [6], the “RF (reversal fold)” value is 4.72 ± 0.63.

With `Cn1c(=O)c2c(Br)c(CN3CCCN(C(=O)CCC(=O)N4CCN(C(=O)c5cc(Cc6n[nH]c(=O)c7ccccc67)ccc5F)CC4)CC3)[se]c2c2ccccc21` [Compound 5a, 1-(4-((3-Bromo-5-methyl-4-oxo-4,5-dihydroselenopheno[3,2-c]quinolin-2-yl)methyl)-1,4-diazepan-1-yl)-4-(4-(2-fluoro-5-((4-oxo-3,4-dihydrophthalazin-1-yl)methyl)benzoyl)piperazin-1-yl)butane-1,4-dione], the melting point was > 200 °C. The IC50 on PARP1 (setting [10]) turned out to be 0.0046 ± 0.0005 µM. Also, in data set [1] (H9c2, 48 h), the IC50 is > 300 µM. Further, the IC50 in data set [2] (setting [11]) stood at 7.1 ± 2.7 µM. The IC50 in data set [3] (setting [12]) was > 100 µM. Further, the IC50 in data set [4] (setting [13]) is 3.1 ± 1 µM. For the same compound, the “RF (reversal fold)” value with MES-SA/Dx-5 cells [7] stood at 0.84 ± 0.16. For the same compound, the IC20 in [8] was 0.48 ± 0.094 µM. The IC50 in data set [8] (setting [14]) was determined as 21.1 ± 3.94 µM.

Take `Cn1c(=O)c2c(Br)c(CN3CCCN(C(=O)CCCCCCCCC(=O)N4CCN(C(=O)c5cc(Cc6n[nH]c(=O)c7ccccc67)ccc5F)CC4)CC3)[se]c2c2ccccc21` [Compound 5b, 1-(4-((3-Bromo-5-methyl-4-oxo-4,5-dihydroselenopheno[3,2-c]quinolin-2-yl)methyl)-1,4-diazepan-1-yl)-10-(4-(2-fluoro-5-((4-oxo-3,4-dihydrophthalazin-1-yl)methyl)benzoyl)piperazin-1-yl)decane-1,10-dione]: the melting point fell in the range of 172 to 174 °C. The IC50 on PARP1 (setting [10]) amounted to 0.013 ± 0.0018 µM. In addition, the IC50 in data set [1] (H9c2, 48 h) is > 300 µM. Also, the IC50 in [2] (setting [11]) stood at 32.5 ± 1.6 µM. Also, the IC50 in data set [3] (setting [12]) was > 100 µM. In data set [4] (setting [13]), the IC50 is > 100 µM. Also, the “RF (reversal fold)” value in the data set with MES-SA/Dx-5 cells [7] is recorded as 3.42 ± 0.12. Moreover, the “times more cytotoxic to MES-SA/Dx-5 than regular MES-SA cells” value in data set [9] is listed as ~20 times. In addition, the IC20 in data set [8] was determined as 0.86 ± 0.096 µM. For the same compound, the IC50 in [8] (setting [14]) stood at 1.67 ± 0.03 µM.

On to `Cn1c(=O)c2c(Br)c(CN3CCCN(C(=O)CCCCCCCCCCC(=O)N4CCN(C(=O)c5cc(Cc6n[nH]c(=O)c7ccccc67)ccc5F)CC4)CC3)[se]c2c2ccccc21` [Compound 5c, 1-(4-((3-Bromo-5-methyl-4-oxo-4,5-dihydroselenopheno[3,2-c]quinolin-2-yl)methyl)-1,4-diazepan-1-yl)-12-(4-(2-fluoro-5-((4-oxo-3,4-dihydrophthalazin-1-yl)methyl)benzoyl)piperazin-1-yl)dodecane-1,12-dione], for which the IC50 is 0.147 ± 0.0022 µM at PARP1 (setting [10]); 0.147 µM on PARP1 (read-out: PARP1 IC50); > 300 µM in data set [1] (H9c2, 48 h); > 100 µM in data set [2] (setting [11]); > 100 µM in [3] (setting [12]); > 100 µM in [4] (setting [13]). For the same compound, the IC50 in [8] (setting [14]) was found to be 26.2 ± 0.03 µM. The “RF (reversal fold)” value with MES-SA/Dx-5 cells [7] stood at 3.36 ± 0.11. Moreover, the IC20 in [8] stood at 0.549 ± 0.074 µM.

For `COc1cccc2c1C(=O)c1c(O)c3c(c(O)c1C2=O)C[C@@](O)(C(=O)CO)C[C@@H]3O[C@H]1C[C@H](N)[C@H](O)[C@H](C)O1` [Doxorubicin, reference compound], the IC50 in data set [1] (H9c2, MTT, 48 h) turned out to be 3.9 ± 0.6 µM; in data set [2] (Homo sapiens, MES-SA, MTT, read-out: MES-SA, IC50), 0.084 ± 0.011 µM; in data set [3] (Homo sapiens, MCF7, 48 h, MTT, 48 h, read-out: MCF-7, IC50) it was 0.47 ± 0.14 µM; in data set [4] (Homo sapiens, HCC1937, 48 h, MTT, 48 h, BRCA1-deficient breast carcinoma, read-out: HCC1937, IC50), 1.08 ± 0.1 µM; in data set [8] (MES-SA/Dx5, read-out: Doxorubicin IC50), 2.4 ± 0.41 µM.

`O=C(c1cc(Cc2n[nH]c(=O)c3ccccc23)ccc1F)N1CCN(C(=O)C2CC2)CC1` [Olaparib, reference compound]: the IC50 in data set [2] (Homo sapiens, MES-SA, read-out: MES-SA, IC50) was > 100 µM; in data set [3] (Homo sapiens, MCF7, 48 h, read-out: MCF-7, IC50), > 100 µM; in data set [4] (Homo sapiens, HCC1937, 48 h, read-out: HCC1937, IC50), > 100 µM; in [8] (setting [14]) it was > 100 µM.

The melting point is the temperature of the solid-liquid transition.
